Literature values in patent US20050096390A1 (priority 2003, published 2005).

Assays:
[1] = pH of 7.0
[2] = 160 mg fenofibrate tablets, typical average blood plasma sample

| SMILES | solubility in water | partition coefficient (octanol/water) [1] | solubility in acetone, acetonitrile, chloroform, and ether (acetone, acetonitrile, chloroform, ether) | solubility in isopropanol (isopropanol) | solubility in methanol (methanol) | AUC0-24 of fenofibrate [2] |
| --- | --- | --- | --- | --- | --- | --- |
| CC[C@H](C)C(=O)O[C@H]1C[C@H](O)C=C2C=C[C@H](C)[C@H](CC[C@@H](O)C[C@@H](O)CC(=O)O)[C@H]21 [Pravastatin] | sparingly soluble |  |  |  |  |  |
| CC[C@H](C)C(=O)O[C@H]1C[C@H](O)C=C2C=C[C@H](C)[C@H](CC[C@@H](O)C[C@@H](O)CC(=O)[O-])[C@H]21.[Na+] (relative stereo) [Pravastatin sodium, 1-naphthalene-heptanoic acid, 1,2,6,7,8,8a-hexahydro-(beta),(beta),6-trihydroxy-2-methyl-8-(2-methyl-1-oxobutoxy)-, monosodium salt, [1S-[1(alpha)((beta)S*,(beta)S*),2(alpha),6(alpha), 8(beta)(R*),8a(alpha)]]-] | > 300 mg/mL | 0.59 | practically insoluble | slightly soluble | > 300 mg/mL |  |
| CC(C)OC(=O)C(C)(C)Oc1ccc(C(=O)c2ccc(Cl)cc2)cc1 [Fenofibrate] |  |  |  |  |  | about 118,300 h·ng/mL |
